Patent publication US9573910B2, “Oxazolidinone antibacterial compound” (Lee Pharma Limited, priority 2013, dated 2017)
Read-outs that look alike come from different tables or passages of the source.

Tests used:
S. maltophilia = test: Susceptibility test profile for commercially available antibiotics; assay type: cell-based, Stenotrophomonas maltophilia
Protocol: Anti bacterial evaluation of compound-I was done against Stenotrophomonas maltophilia on following parameters— • f. Agar-plate assay for different concentrations (10, 50, 100, 150 μg) • g. MIC studies • 1. With different concentrations (1000 to 5 μg/ml-˜10 different concentrations) • 2. Different time periods (4 to 32 hrs—8 different time intervals) • h. Mode of action with relation to survivability of organism • 1. Cidal/static with concentration and incubation time based) • 2. Evaluation by colony counting/dye based • i. Susceptibility test (evaluation of >40 antibiotics of different nature) • j. Antibacterial potential studies with other infectious bacteria (˜20 different strains) Results Agar-Plate Assay
Susceptibility Test Profile of S. maltophilia for Different Antibiotics (FIG. 10)

B. subtilis = assay type: cell-based
S. maltophilla = assay type: cell-based
P. aeruginosa = assay type: cell-based
B. circulans = assay type: cell-based
M. luteus = assay type: cell-based
B. sterothemophilus = assay type: cell-based
B. cereus (2) = assay type: cell-based
Lysinobacillus = assay type: cell-based
B. sphaericus = assay type: cell-based
P. vulgaris = assay type: cell-based
B. megatherium = assay type: cell-based
K. pneumonia = assay type: cell-based
E. coli = assay type: cell-based
P. putida = assay type: cell-based
B. cereus (1) = assay type: cell-based
P. mirabilis = assay type: cell-based
B. cereus (3) = assay type: cell-based
[1] = test system: Stenotrophomonas maltophilia; test: Agar plate assay, zone of growth inhibition; assay type: cell-based; settings: for zone of inhibition at 50 µg/disc: Stenotrophomonas maltophilia, read-out: Zone of growth inhibition in mm; for Activity against S. maltophilia (in words): agar plate
Protocol: To evaluate the same, 0 to 250 μg concentration range used for agar plate assay. Two percent agar plates were prepared and 24 hours grown S. maltophilia was spread on agar plate and incubated at 4° C. After 30 min, the agar plates consisting of S. maltophilia were brought to sterile environment at room temperature and using sterile borer wells were developed. […] After 24 hours of incubation at 37° C., the zone of inhibition was measured.

S. typhi = assay type: cell-based
S. mutans = assay type: cell-based

CC[C@H]1OC(=O)[C@H](C)[C@@H](O[C@H]2C[C@@](C)(OC)[C@@H](O)[C@H](C)O2)[C@H](C)[C@@H](O[C@@H]2O[C@H](C)C[C@H](N(C)C)[C@H]2O)[C@](C)(OC)C[C@@H](C)C(=O)[C@H](C)[C@@H](O)[C@]1(C)O [Clarithromycin]
Zone (mm) (S. maltophilia; Quantity 15 μg): Resistant

O=C1OCCN1/N=C/c1ccc([N+](=O)[O-])o1 [Furazolidone]
Zone (mm) (S. maltophilia; Quantity 50 μg): Resistant

CCC[C@@H]1C[C@@H](C(=O)N[C@@H]([C@H]2O[C@H](SC)[C@H](O)[C@@H](O)[C@H]2O)[C@@H](C)O)N(C)C1 [Lincomycin]
Zone (mm) (S. maltophilia; Quantity 2 μg): Resistant

CC(=O)NC[C@H]1CN(c2ccc(N3CCOCC3)c(F)c2)C(=O)O1 [Linezolid]
Zone of growth inhibition in mm (B. subtilis): 40 mm | Zone of growth inhibition in mm (S. maltophilla): 00 mm | Zone of growth inhibition in mm (P. aeruginosa): 00 mm | Zone of growth inhibition in mm (B. circulans): 38 mm | Zone of growth inhibition in mm (M. luteus): 45 mm | Zone of growth inhibition in mm (B. sterothemophilus): 00 mm | Zone of growth inhibition in mm (B. cereus (2)): 35 mm | Zone of growth inhibition in mm (Lysinobacillus): 40 mm | Zone of growth inhibition in mm (B. sphaericus): 30 mm | Zone of growth inhibition in mm (P. vulgaris): 00 mm | Zone of growth inhibition in mm (B. megatherium): 37 mm | Zone of growth inhibition in mm (K. pneumonia): 35 mm | Zone of growth inhibition in mm (S. paratyphi): 00 mm | Zone of growth inhibition in mm (E. coli): 35 mm | Zone of growth inhibition in mm (P. putida): 00 mm | Zone of growth inhibition in mm (B. cereus (1)): 00 mm | Zone of growth inhibition in mm (P. mirabilis): 35 mm | Zone of growth inhibition in mm (B. cereus (3)): 45 mm | zone of inhibition at 50 µg/disc ([1]; S. maltophilia, agar plates, 50 μg of each compound dissolved in DMSO): 0 mm | Activity against S. maltophilia (in words) [1]: not inhibitory | Zone of growth inhibition in mm (S. typhi): 40 mm | Zone of growth inhibition in mm (S. mutans): 40 mm

CCn1cc(C(=O)O)c(=O)c2ccc(C)nc21 [Nalidixic]
Zone (mm) (S. maltophilia; Quantity 30 μg): 7 mm

CCN[C@@H]1C[C@H](N)[C@@H](O[C@H]2OC(CN)=CC[C@H]2N)[C@H](O)[C@H]1O[C@H]1OC[C@](C)(O)[C@H](NC)[C@H]1O.CCN[C@@H]1C[C@H](N)[C@@H](O[C@H]2OC(CN)=CC[C@H]2N)[C@H](O)[C@H]1O[C@H]1OC[C@](C)(O)[C@H](NC)[C@H]1O.O=S(=O)(O)O.O=S(=O)(O)O.O=S(=O)(O)O.O=S(=O)(O)O.O=S(=O)(O)O [Netillin(Netilmicin sulphate), Netilmicin sulphate]
Zone (mm) (S. maltophilia; Quantity 30 μg): 7 mm

CN[C@H](CC(C)C)C(=O)N[C@H]1C(=O)N[C@@H](CC(N)=O)C(=O)N[C@H]2C(=O)N[C@H]3C(=O)N[C@H](C(=O)N[C@H](C(=O)O)c4cc(O)cc(O)c4-c4cc3ccc4O)[C@H](O)c3ccc(c(Cl)c3)Oc3cc2cc(c3O[C@@H]2O[C@H](CO)[C@@H](O)[C@H](O)[C@H]2O[C@H]2C[C@](C)(N)[C@H](O)[C@H](C)O2)Oc2ccc(cc2Cl)[C@H]1O [Vancomycin]
Zone of growth inhibition in mm (B. subtilis): 25 mm | Zone of growth inhibition in mm (S. maltophilla): 00 mm | Zone of growth inhibition in mm (P. aeruginosa): 00 mm | Zone of growth inhibition in mm (B. circulans): 27 mm | Zone of growth inhibition in mm (M. luteus): 32 mm | Zone of growth inhibition in mm (B. sterothemophilus): 00 mm | Zone of growth inhibition in mm (B. cereus (2)): 27 mm | Zone of growth inhibition in mm (Lysinobacillus): 30 mm | Zone of growth inhibition in mm (B. sphaericus): 12 mm | Zone of growth inhibition in mm (P. vulgaris): 00 mm | Zone of growth inhibition in mm (B. megatherium): 27 mm | Zone of growth inhibition in mm (K. pneumonia): 25 mm | Zone of growth inhibition in mm (S. paratyphi): 25 mm | Zone of growth inhibition in mm (E. coli): 25 mm | Zone of growth inhibition in mm (P. putida): 00 mm | Zone of growth inhibition in mm (B. cereus (1)): 00 mm | Zone of growth inhibition in mm (P. mirabilis): 27 mm | Zone of growth inhibition in mm (B. cereus (3)): 32 mm | zone of inhibition at 50 µg/disc [1]: 0 mm | Activity against S. maltophilia (in words) [1]: not inhibitory | Zone of growth inhibition in mm (S. typhi): 14 mm | Zone of growth inhibition in mm (S. mutans): 30 mm

Gentamicin
Zone (mm) (S. maltophilia; Quantity 10 μg): 7 mm

Penicillin
Zone (mm) (S. maltophilia; Quantity 10 μg): 6 mm

Teicoplanin
Zone (mm) (S. maltophilia; Quantity 30 μg): 4 mm
